According to patent US20110178118A1, “PALONOSETRON FOR THE TREATMENT OF CHEMOTHERAPY INDUCED EMESES” (priority 2002, published 2011):
Read-outs that look alike come from different tables or passages of the source. Marks after values point to notes of the source that are not given here.

Assays:
[1] = tested on: cisplatin-induced emesis; test: Intravenous palonosetron vs ondansetron in cisplatin-treated dogs; format: in vivo; details: 1.0 mg/kg intravenous; five-hour period following cisplatin 3.0 mg/kg
Description: (§1) The antiemetic effects of intravenously and orally administered palonosetron were assessed in male and female dogs (sexes combined). Antineoplastic agents employed in these experiments included cisplatin (3 mg/kg)), dacarbazine (30 mg/kg), mechlorethamine (0.4 mg/kg) and actinomycin D (0.15 mg/kg). […] Mean numbers of episodes were computed and the statistical significance of differences between treatment groups were determined with Dunnett's t test. Solutions of palonosetron and comparator drugs (ondansetron and granisetron) were prepared in distilled water. Vehicle control groups received distilled water. The therapeutic effects of intravenously and orally administered palonosetron were compared to those of ondansetron and vehicle in cisplatin-treated dogs.

[2] = tested on: cisplatin-induced emesis; test: Reversal of cisplatin-induced emesis, intravenous antiemetic one hour after cisplatin; format: in vivo, dogs; details: for Emetic Episodes (mean ± SD): observed five hours
Description: as §1, with “In a different study, palonosetron and ondansetron were assessed for their relative abilities to reverse cisplatin-induced emesis. In these experiments dogs received intravenous injections” for “The therapeutic effects”, “palonosetron, ondansetron, or vehicle one hour after the intravenous administration” for “intravenously and orally administered palonosetron were compared to those”, “3.0 mg/kg cisplatin. Each animal was observed continuously for five hours following cisplatin administration for the number of emetic episodes.” for “ondansetron and vehicle in cisplatin-treated dogs.”

[3] = tested on: cisplatin-induced emesis; test: Anti-emetic effect, oral antiemetic one hour before cisplatin; format: in vivo, dogs; details: for Emetic Episodes (mean ± SD): observed five hours
Description: The antiemetic effects of intravenously and orally administered palonosetron were assessed in male and female dogs (sexes combined). Antineoplastic agents employed in these experiments included cisplatin (3 mg/kg)), dacarbazine (30 mg/kg), mechlorethamine (0.4 mg/kg) and actinomycin D (0.15 mg/kg). […] Mean numbers of episodes were computed and the statistical significance of differences between treatment groups were determined with Dunnett's t test. Solutions of palonosetron and comparator drugs (ondansetron and granisetron) were prepared in distilled water. Vehicle control groups received distilled water. The observation of potency differential was further seen during an experiment in which oral dose-response relationships of palonosetron and ondansetron were compared in cisplatin-treated dogs. Palonosetron, ondansetron or vehicle control were administered by the oral route one hour prior to the administration of cisplatin. Each animal was observed continuously for five hours following cisplatin administration for the number of emetic episodes.

[4] = tested on: cisplatin-induced emesis; test: Duration of action in cisplatin-treated dogs; format: in vivo
Description: Mean numbers of episodes were computed and the statistical significance of differences between treatment groups were determined with Dunnett's t test. Solutions of palonosetron and comparator drugs (ondansetron and granisetron) were prepared in distilled water. Vehicle control groups received distilled water.

[5] = tested on: Dacarbazine-Induced Emesis; test: Antagonism of dacarbazine-induced emesis; format: in vivo, dogs; details: 2 hours prior to dacarbazine 30.0 mg/kg IV, observed 5 hours
[6] = tested on: Actinomycin D-Induced Emesis; test: Antagonism of actinomycin D-induced emesis; format: in vivo, dogs; details: 2 hours prior to actinomycin D 0.15 mg/kg IV, observed 5 hours
[7] = tested on: Mechlorethamine-Induced Emesis; format: in vivo, dogs; details: 2 hours prior to mechlorethamine 0.4 mg/kg IV, observed 5 hours
[8] = intravenous antiemetic 0.01 mg/kg
[9] = intravenous antiemetic 0.03 mg/kg
[10] = intravenous antiemetic 0.1 mg/kg
[11] = intravenous antiemetic 0.3 mg/kg

Cc1nccn1CC1CCc2c(c3ccccc3n2C)C1=O (centres unmarked) [Ondansetron, reference compound]
mean number of emetic episodes [1]: 6.83 | Emetic Episodes (mean ± SD) ([2]; intravenous dose 1.0 μg/kg one hour after cisplatin 3.0 mg/kg IV): 16.16 ± 5.14 ^ | Emetic Episodes (mean ± SD) ([2]; intravenous dose 3.0 μg/kg one hour after cisplatin 3.0 mg/kg IV): 13.33 ± 4.17 ^ | Emetic Episodes (mean ± SD) ([2]; intravenous dose 10.0 μg/kg one hour after cisplatin 3.0 mg/kg IV): 13.33 ± 3.01 ^ | Emetic Episodes (mean ± SD) ([2]; intravenous dose 30.0 μg/kg one hour after cisplatin 3.0 mg/kg IV): 8.33 ± 3.20^ | Emetic Episodes (mean ± SD) ([2]; intravenous dose 100.0 μg/kg one hour after cisplatin 3.0 mg/kg IV): 4.83 ± 2.40^b | Emetic Episodes (mean ± SD) ([2]; intravenous dose 300.0 μg/kg one hour after cisplatin 3.0 mg/kg IV): 1.00 ± 2.00^b | Emetic Episodes (mean ± SD) ([2]; intravenous dose 1000.0 μg/kg one hour after cisplatin 3.0 mg/kg IV): 1.16 ± 0.40^b | statistically minimally effective dose level ([2]; intravenous, one hour after cisplatin): 0.1 mg/kg | Emetic Episodes (mean ± SD) ([3]; oral dose 1.0 μg/kg one hour before cisplatin): 15.50 ± 3.93 | Emetic Episodes (mean ± SD) ([3]; oral dose 3.0 μg/kg one hour before cisplatin): 14.83 ± 6.49 | Emetic Episodes (mean ± SD) ([3]; oral dose 10.0 μg/kg one hour before cisplatin): 12.66 ± 3.01 | Emetic Episodes (mean ± SD) ([3]; oral dose 30.0 μg/kg one hour before cisplatin): 18.33 ± 8.43 | Emetic Episodes (mean ± SD) ([3]; oral dose 100.0 μg/kg one hour before cisplatin): 10.50 ± 3.14 | Emetic Episodes (mean ± SD) ([3]; oral dose 300.0 μg/kg one hour before cisplatin): 3.16 ± 1.32^a | Emetic Episodes (mean ± SD) ([3]; oral dose 1000.0 μg/kg one hour before cisplatin): 2.00 ± 2.09^a | minimally effective dose (significant reduction in episodes) ([3]; oral, one hour before cisplatin): 0.3 mg/kg | pretreatment time before cisplatin with reduced emetic episodes ([4]; 0.15 mg/kg IV): only after a one-hour pretreatment period | Emetic Episodes (mean ± SD) ([4]; 0.15 mg/kg IV, 1 hr pre-cisplatin 3.0 mg/kg IV): 7.83 ± 4.12^b | Emetic Episodes (mean ± SD) ([4]; 0.15 mg/kg IV, 2 hr pre-cisplatin 3.0 mg/kg IV): 10.67 ± 5.28 | Emetic Episodes (mean ± SD) ([4]; 0.15 mg/kg IV, 4 hr pre-cisplatin 3.0 mg/kg IV): 12.67 ± 2.07 | Emetic Episodes (mean ± SD) ([4]; 0.15 mg/kg IV, 6 hr pre-cisplatin 3.0 mg/kg IV): 14.17 ± 6.79 | Emetic Episodes (mean ± SD) ([4]; 0.15 mg/kg IV, 8 hr pre-cisplatin 3.0 mg/kg IV): 15.50 ± 7.29 | Emetic Episodes (mean ± SD) ([4]; 0.15 mg/kg IV, 10 hr pre-cisplatin 3.0 mg/kg IV): 13.83 ± 4.58 | Emetic Episodes (mean ± SD) ([4]; 0.15 mg/kg IV, 12 hr pre-cisplatin 3.0 mg/kg IV): 22.00 ± 8.32 | protective effects, pretreatment time prior to cisplatin ([4]; earlier experiment, 0.3 mg/kg, IV): as long as seven hours | Emetic Episodes (mean ± SD) [5, 8]: 11.50 ± 5.51 ^ | Emetic Episodes (mean ± SD) [5, 9]: 8.17 ± 2.79^ | Emetic Episodes (mean ± SD) [5, 10]: 4.83 ± 2.48^d | Emetic Episodes (mean ± SD) [5, 11]: 1.33 ± 0.82^d | Emetic Episodes (mean ± SD) ([5]; oral antiemetic 0.03 mg/kg): 10.83 ± 2.72 ^ | Emetic Episodes (mean ± SD) ([5]; oral antiemetic 0.1 mg/kg): 6.17 ± 5.35^d | Emetic Episodes (mean ± SD) ([5]; oral antiemetic 0.3 mg/kg): 3.00 ± 3.03^d | Emetic Episodes (mean ± SD) ([5]; oral antiemetic 1 mg/kg): 0.17 ± 0.41^d | Emetic Episodes (mean ± SD) [6, 8]: 7.67 ± 2.25^d | Emetic Episodes (mean ± SD) [6, 9]: 14.67 ± 4.68 ^ | Emetic Episodes (mean ± SD) [6, 10]: 12.67 ± 3.45 ^ | Emetic Episodes (mean ± SD) [6, 11]: 5.83 ± 4.45^d | Emetic Episodes (mean ± SD) ([6]; oral antiemetic 0.03 mg/kg): 9.83 ± 7.52^ | Emetic Episodes (mean ± SD) ([6]; oral antiemetic 0.1 mg/kg): 10.33 ± 4.84 ^ | Emetic Episodes (mean ± SD) ([6]; oral antiemetic 0.3 mg/kg, one dog dropped): 4.20 ± 1.92^d | Emetic Episodes (mean ± SD) ([6]; oral antiemetic 1 mg/kg): 1.50 ± 1.38^d | Emetic Episodes (mean ± SD) [7, 8]: 5.83 ± 4.31 | Emetic Episodes (mean ± SD) [7, 9]: 3.50 ± 2.07^c | Emetic Episodes (mean ± SD) [7, 10]: 5.33 ± 4.68 | Emetic Episodes (mean ± SD) [7, 11]: 4.67 ± 1.63^c | Emetic Episodes (mean ± SD) ([7]; oral antiemetic 0.03 mg/kg): 5.67 ± 2.50 | Emetic Episodes (mean ± SD) ([7]; oral antiemetic 0.1 mg/kg): 8.50 ± 3.15 | Emetic Episodes (mean ± SD) ([7]; oral antiemetic 0.3 mg/kg): 2.83 ± 3.71^d | Emetic Episodes (mean ± SD) ([7]; oral antiemetic 1 mg/kg): 0.00 ± 0.00^d
